This is an account of results in US20210008541A1, “INSTRUMENT AND METHODS FOR AUTOMATED SAMPLE PREPARATION FOR MICROORGANISM IDENTIFICATION AND DIFFERENTIATION” (Accelerate Diagnostics, Inc., priority 2019, published 2021).

For one experiment, the system named is PRMI_IHMA_827374. Put plainly: Disk diffusion inhibition of RAM ingredients on MHA plates. To be noted: 100 μL dispensed on MHA plate, lawned with PRMI_IHMA_827374. Format: cell-based, Proteus mirabilis. Here is the method: (§1) Thus, each of the ingredients was checked for potential inhibition. The first portion of this study was meant to determine the source of inhibition and to formulate different variations of a respiratory artificial matrix (RAM) to use as a pellet former. To complete this objective, 100 μL of each of the ingredients was dispensed onto the center of four different Mueller Hinton Agar (MHA) plates. After letting the plates dry for ˜2 hours they were lawned with the following four bacteria: ECOL_ATCC_25922, SAUR_ATCC_29213, PROV_ATCC_6380 and PRMI_IHMA_827374. The following day the plates were measured for zones of inhibition. Following this, the pellet former recipe was optimized to exclude non-sterile components. […] Many fresh positive specimens of varying viscosities were then tested with an assay that incorporated this pellet former by adding 500 μL to the capsule with 1500 μL of BAL or mini-BAL specimen.

Experiment [1] deals with ECOL_ATCC_25922, SAUR_ATCC_29213, PROV_ATCC_6380 and PRMI_IHMA_827374. Briefly: Disk diffusion inhibition of RAM ingredients, all four lawned bacteria. In kind it is cell-based.
Experimental: Thus, each of the ingredients was checked for potential inhibition. […] To complete this objective, 100 μL of each of the ingredients was dispensed onto the center of four different Mueller Hinton Agar (MHA) plates. After letting the plates dry for ˜2 hours they were lawned with the following four bacteria: ECOL_ATCC_25922, SAUR_ATCC_29213, PROV_ATCC_6380 and PRMI_IHMA_827374. The following day the plates were measured for zones of inhibition.
The test system of the next experiment is ECOL_ATCC_25922. Briefly: Disk diffusion inhibition of RAM ingredients on MHA plates. Format: cell-based, Escherichia coli. To be noted: 100 μL dispensed on MHA plate, lawned with ECOL_ATCC_25922. As to the method:
as §1
A general note: Agar diffusion results depend on both activity and mobility in agar.

For a further experiment, the system named is PROV_ATCC_6380. Described as above. In kind it is cell-based, Proteus vulgaris. To be noted: 100 μL dispensed on MHA plate, lawned with PROV_ATCC_6380. Here is the method: as §1
The subject of a further experiment is SAUR_ATCC_29213. Described as above. In kind it is cell-based, Staphylococcus aureus. As to conditions: 100 μL dispensed on MHA plate, lawned with SAUR_ATCC_29213. Here is the method:
as §1

Regarding `O=C(O)CN(CCN(CC(=O)O)CC(=O)O)CCN(CC(=O)O)CC(=O)O` [DTPA alone, DTPA], the “Disk Diffusion Inhibition (zone of inhibition)” value in the experiment on PRMI_IHMA_827374 came to 30 mm; in the experiment on ECOL_ATCC_25922 it was 7 mm; with PROV_ATCC_6380, 26 mm; in the experiment with SAUR_ATCC_29213 it was 19 mm. The “Inhibition by disk diffusion method” value in experiment [1] is “inhibited each of the organisms tested”.
